Key:
EGFR = EGFR (Homo sapiens, UniProt P00533); test: Rapid dilution irreversibility experiment; format: biochemical; set-up: The kinase domain of EGFR, ErbB-2, IGF1R, VEGFR2, FGFR1, PDGFRα, c-Src, c-Met, RON, c-Kit, EphA2 and EphB2 were expressed; made in house; settings: preincubated 30 min at 100-fold IC50, diluted 100-fold, sampled 180 minutes
Method: (§1) The microplate was placed in the EZ Reader (Caliper Life Sciences, MA) and wells were repeatedly sampled for 180 minutes.
(§2) To verify this, we determined the reversibility of EGFR and ErbB2 binding using a dilution method. […] After incubating, the enzyme/inhibitor mixture is diluted 100-fold (i.e., to normal reaction conditions), reaction buffer plus ATP and substrate are added, and receptor kinase activity is measured continuously. In general, a reversible inhibitor dissociates quickly, allowing immediate recovery of enzymatic activity, whereas a slowly reversible inhibitor allows a gradual increase in activity. In contrast, an irreversible inhibitor prevents recovery of enzymatic activity.

ErbB2 = ErbB2 (Homo sapiens, UniProt P04626); test: Rapid dilution irreversibility experiment; format: biochemical; set-up: The kinase domain of EGFR, ErbB-2, IGF1R, VEGFR2, FGFR1, PDGFRα, c-Src, c-Met, RON, c-Kit, EphA2 and EphB2 were expressed; made in house; settings: preincubated 30 min at 100-fold IC50, diluted 100-fold, sampled 180 minutes
Chain of ErbB2 (P04626 720-987 limits assumed): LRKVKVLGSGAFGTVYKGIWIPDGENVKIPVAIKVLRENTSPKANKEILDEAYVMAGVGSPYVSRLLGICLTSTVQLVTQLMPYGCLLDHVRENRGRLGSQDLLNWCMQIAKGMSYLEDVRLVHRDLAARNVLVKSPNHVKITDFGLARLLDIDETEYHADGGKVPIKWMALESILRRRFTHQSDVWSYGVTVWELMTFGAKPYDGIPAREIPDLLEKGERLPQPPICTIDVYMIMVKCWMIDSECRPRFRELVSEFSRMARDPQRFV
Method: as §1, §2

Chain of EGFR (P00533 712-979 limits assumed): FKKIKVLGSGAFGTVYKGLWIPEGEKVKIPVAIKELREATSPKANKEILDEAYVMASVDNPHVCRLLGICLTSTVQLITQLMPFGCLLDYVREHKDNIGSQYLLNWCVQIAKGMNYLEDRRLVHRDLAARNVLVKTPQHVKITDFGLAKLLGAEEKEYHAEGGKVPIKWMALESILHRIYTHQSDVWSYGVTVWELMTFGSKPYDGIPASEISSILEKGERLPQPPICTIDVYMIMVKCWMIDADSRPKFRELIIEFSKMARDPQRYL

Compound: C=CC(=O)Nc1ccc2ncnc(Nc3ccc(OCc4cccc(F)c4)c(Cl)c3)c2c1 [AST1306]
- recovery of EGFR enzymatic activity after dilution (EGFR): virtually no EGFR or ErbB2 activity was recovered
- recovery of ErbB2 enzymatic activity after dilution (ErbB2): virtually no EGFR or ErbB2 activity was recovered
